Results from US20090325964A1, “Piperazine Metabotropic Glutamate Receptor 5 (MGLUR5) Negative Allosteric Modulators For Anxiety/Depression” (Wyeth, priority 2008, published 2009).

What was measured:
rat mGluR5 receptor = target: T1, rat mGluR5 receptor (Rattus norvegicus, UniProt P31424); assay: [3H]-MPEP displacement binding assay, HEK-293 cell membranes expressing rat mGluR5; conditions: [3H]-MPEP displacement, rat mGluR5 membranes; read-out: Median Ki
T1 construct: expressed in transfected cells; host or cells: HEK-293
T1 sequence (P31424 21-1203): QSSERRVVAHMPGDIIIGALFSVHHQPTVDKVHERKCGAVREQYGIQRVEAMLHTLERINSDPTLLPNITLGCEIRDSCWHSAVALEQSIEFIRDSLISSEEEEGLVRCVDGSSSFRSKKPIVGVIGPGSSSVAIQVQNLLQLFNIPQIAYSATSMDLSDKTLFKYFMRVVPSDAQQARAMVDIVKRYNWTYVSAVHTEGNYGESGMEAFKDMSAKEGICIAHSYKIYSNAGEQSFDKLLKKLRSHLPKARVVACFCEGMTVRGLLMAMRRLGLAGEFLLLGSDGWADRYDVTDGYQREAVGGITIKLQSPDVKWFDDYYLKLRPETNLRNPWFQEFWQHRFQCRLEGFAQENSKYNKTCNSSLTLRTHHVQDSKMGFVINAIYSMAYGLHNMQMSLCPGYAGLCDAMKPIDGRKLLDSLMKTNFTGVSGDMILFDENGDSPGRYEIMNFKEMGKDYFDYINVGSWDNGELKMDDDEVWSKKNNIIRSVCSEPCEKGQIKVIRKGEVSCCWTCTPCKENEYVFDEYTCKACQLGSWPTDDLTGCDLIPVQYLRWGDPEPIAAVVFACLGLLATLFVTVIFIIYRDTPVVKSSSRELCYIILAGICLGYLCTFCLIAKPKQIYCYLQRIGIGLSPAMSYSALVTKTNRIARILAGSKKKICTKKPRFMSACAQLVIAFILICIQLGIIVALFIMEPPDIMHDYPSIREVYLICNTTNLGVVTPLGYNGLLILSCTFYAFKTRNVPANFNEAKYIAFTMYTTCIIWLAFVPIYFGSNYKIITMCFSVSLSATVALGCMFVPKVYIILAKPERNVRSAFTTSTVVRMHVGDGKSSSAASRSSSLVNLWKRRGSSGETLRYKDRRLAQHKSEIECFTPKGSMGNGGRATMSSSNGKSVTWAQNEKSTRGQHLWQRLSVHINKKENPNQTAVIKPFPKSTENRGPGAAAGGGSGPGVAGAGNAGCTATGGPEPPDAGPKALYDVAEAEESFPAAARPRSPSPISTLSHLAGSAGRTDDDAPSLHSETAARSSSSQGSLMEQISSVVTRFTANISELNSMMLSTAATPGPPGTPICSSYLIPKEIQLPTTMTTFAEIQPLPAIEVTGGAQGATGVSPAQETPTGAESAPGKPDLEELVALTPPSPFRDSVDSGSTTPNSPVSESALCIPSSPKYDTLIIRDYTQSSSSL
Method in brief: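 Membranes from HEK-293 cells expressing rat mGluR5 (12-25 μg protein), incubated 60 min at room temperature with 4 nM [3H]-MPEP in 50 mM Tris pH 7.5, then filtered. Nonspecific binding defined with 10 μM MPEP.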

mGluR5 = mGluR5 (Rattus norvegicus, UniProt P31424); assay: IC50 column under 'Biological Activity' (assay not identified in the shown text; not the binding Ki)
Chain of mGluR5 (P31424 21-1203): as above

| Structure (SMILES) | Ki (rat mGluR5 receptor) | IC50 (mGluR5) |
| --- | --- | --- |
| O=C(c1ccc(Cl)c(C#Cc2ccccn2)c1)N1CCN(c2cccc(O)c2)CC1 [Compound 393, 3-(4-{[4-chloro-3-(pyridin-2-ylethynyl)phenyl]carbonyl}piperazin-1-yl)phenol] | 12 nM | 144 nM |
| O=C(c1ccc(Cl)c(C#Cc2ccccn2)c1)N1CCN(c2ncccc2Cl)CC1 [Compound 394, 1-(3-chloropyridin-2-yl)-4-{[4-chloro-3-(pyridin-2-ylethynyl)phenyl]carbonyl}piperazine] | 21 nM | 145 nM |
| COc1cccc(N2CCN(C(=O)c3ccc(Cl)c(C#Cc4ccccn4)c3)CC2)c1 [Compound 395, 1-{[4-chloro-3-(pyridin-2-ylethynyl)phenyl]carbonyl}-4-(3-methoxyphenyl)piperazine] | 19 nM | 113 nM |
| N#Cc1nccnc1N1CCN(C(=O)c2ccc(Cl)c(C#Cc3ccccn3)c2)CC1 [Compound 396, 3-(4-{[4-chloro-3-(pyridin-2-ylethynyl)phenyl]carbonyl}piperazin-1-yl)pyrazine-2-carbonitrile] | 17 nM | 47 nM |
